Laboratory results from ChEMBL document CHEMBL1201862, “PubChem BioAssay data set” (2004).
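In this assay, cells in 96-well plates receive the compound at five concentrations for 48 hours. Endpoints are linearly interpolated between the surrounding concentrations. The concentration for 50% growth inhibition is given as GI50.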 Calls of active or inactive are those of the source. No stated cut-off is given here; in the data, active = GI50 up to about 1.1 µM and inactive = higher.

Assays:
Experiment in all cases: NCI tumour cell line growth inhibition, 48 h
LXFL 529 = tested on: LXFL 529
DLD-1 = tested on: DLD-1
KM-20L2 = tested on: KM-20L2
M19-MEL = tested on: M19-MEL
DMS-273 = tested on: DMS-273
DMS-114 = tested on: DMS-114
SNB-78 = tested on: SNB-78
XF498 = tested on: XF498
RXF 631 = tested on: RXF 631

Measured: GI50

CC1=COC(=O)c2ccccc2N1
inactive: LXFL 529 > 100 µM | DLD-1 > 100 µM | KM-20L2 > 100 µM | M19-MEL > 100 µM | DMS-273 > 100 µM | DMS-114 > 100 µM | SNB-78 > 100 µM

CCOC(=O)C(C(=O)c1ccccc1)=C1NCCN1
inactive: LXFL 529 > 100 µM | XF498 > 100 µM | DLD-1 > 100 µM | RXF 631 > 100 µM | KM-20L2 > 100 µM | M19-MEL > 100 µM

CCCCN(CC)C(=O)C(=O)C1C(=O)Nc2ccccc2[S+]1[O-] (centres undefined)
inactive: LXFL 529 > 100 µM | DLD-1 > 100 µM | KM-20L2 > 100 µM | M19-MEL > 100 µM | DMS-273 > 100 µM | DMS-114 > 100 µM | SNB-78 > 100 µM

O=C(Nc1ccc(C(F)(F)F)cc1[N+](=O)[O-])C(=O)C(C(=O)c1ccc2ccccc2c1)C1OC(=O)c2ccccc21 (centres undefined)
inactive: LXFL 529 5.18 µM | DLD-1 6.9 µM | KM-20L2 20.6 µM | M19-MEL 8.89 µM | DMS-114 8.71 µM | SNB-78 10.1 µM

O=C1C2C3CC4C5C3C1C5C1(SCCS1)C42 (centres undefined)
inactive: LXFL 529 > 100 µM | DLD-1 > 100 µM | KM-20L2 > 100 µM | M19-MEL > 100 µM | DMS-273 > 100 µM | DMS-114 > 100 µM | SNB-78 > 100 µM

CCN(CC)CCn1c2c3ccccc3ccc2c2oc(=O)c3ccccc3c21
inactive: LXFL 529 > 100 µM | XF498 > 100 µM | DLD-1 > 100 µM | RXF 631 > 100 µM | KM-20L2 > 100 µM | M19-MEL > 100 µM | DMS-114 > 100 µM | SNB-78 > 100 µM

O=c1cc(O)cc2n1CCC2
inactive: LXFL 529 > 100 µM | XF498 > 100 µM | DLD-1 > 100 µM | RXF 631 > 100 µM | KM-20L2 > 100 µM | DMS-273 > 100 µM | DMS-114 > 100 µM | SNB-78 > 100 µM

COc1ccc(S(=O)(=O)N(CC(=O)O)c2ccccc2)cc1
inactive: LXFL 529 > 100 µM | DLD-1 > 100 µM | KM-20L2 > 100 µM | M19-MEL > 100 µM | DMS-273 > 100 µM

Cc1cc(O)nc(CNC(=O)Cc2ccccc2)n1
inactive: LXFL 529 > 100 µM | XF498 > 100 µM | DLD-1 > 100 µM | KM-20L2 > 100 µM | M19-MEL > 100 µM | DMS-273 > 100 µM | DMS-114 > 100 µM | SNB-78 > 100 µM

CCCCNC(=O)NNC(=O)c1cc(/C=C/c2cccc([N+](=O)[O-])c2)ncn1
inactive: LXFL 529 > 10 µM | XF498 > 100 µM | DLD-1 37.7 µM | RXF 631 > 100 µM | KM-20L2 > 100 µM | M19-MEL > 100 µM | DMS-273 > 100 µM | DMS-114 51.3 µM | SNB-78 > 100 µM

C[Si](C)(C)OC1(C#N)C2C3CC4C2C(=O)C2C4C3C21 (centres undefined)
inactive: LXFL 529 > 100 µM | DLD-1 > 100 µM | KM-20L2 > 100 µM | M19-MEL > 100 µM | DMS-273 > 100 µM | DMS-114 > 100 µM | SNB-78 > 100 µM

Cn1c(=O)nc2n(-c3ccc(Cl)cc3)c3ccc(Cl)cc3nc-2c1=O
inactive: KM-20L2 4.88 µM | SNB-78 14.8 µM

CC(C)(C)C1CCC(=O)C(C(O)CC2CC(=O)N(c3ccccc3)C(=O)C2)C1 (centres undefined)
inactive: LXFL 529 > 100 µM | XF498 > 100 µM | DLD-1 > 100 µM | RXF 631 56.8 µM | KM-20L2 > 100 µM | M19-MEL > 100 µM | DMS-273 > 100 µM | DMS-114 > 100 µM | SNB-78 > 100 µM

COc1cc2ccc3c4cc(OC)c(OC)cc4c[n+](C)c3c2cc1O
inactive: LXFL 529 12.6 µM | XF498 24.7 µM | DLD-1 > 100 µM | KM-20L2 > 100 µM | M19-MEL > 100 µM | DMS-273 55.5 µM | DMS-114 8.99 µM | SNB-78 > 100 µM

COc1ccc(/C(=N\NC(=O)C(=O)NN)C(c2ccc(OC)cc2)C2(O)C(=O)Nc3ccccc32)cc1 (centres undefined)
inactive: LXFL 529 29 µM | XF498 29.6 µM | DLD-1 51.4 µM | RXF 631 > 100 µM | KM-20L2 > 100 µM | M19-MEL > 100 µM | DMS-273 > 100 µM | DMS-114 64.3 µM | SNB-78 > 100 µM

COc1ccc(C2Cc3cc(OC)c(OC)c(OC)c3C2=O)cc1 (centres undefined)
inactive: XF498 2 µM | DLD-1 > 100 µM | KM-20L2 > 100 µM | M19-MEL > 100 µM | DMS-273 > 100 µM | DMS-114 76.6 µM | SNB-78 > 100 µM

Cc1ccnc(NS(=O)(=O)c2ccc(NC3=CC(=O)C(=O)c4ccccc43)cc2)n1
inactive: LXFL 529 > 100 µM | XF498 > 100 µM | DLD-1 > 100 µM | RXF 631 > 100 µM | KM-20L2 > 100 µM | M19-MEL > 100 µM | DMS-273 > 100 µM | DMS-114 > 100 µM | SNB-78 > 100 µM

N#CCCN(c1ccc(C=O)cc1)S(=O)(=O)c1ccccc1
inactive: LXFL 529 > 100 µM | XF498 > 100 µM | KM-20L2 > 100 µM | M19-MEL > 100 µM | DMS-273 > 100 µM | DMS-114 > 100 µM

CCOC(=O)C(=O)Nc1cccc(Cl)c1C
inactive: LXFL 529 > 100 µM | XF498 49.8 µM | DLD-1 > 100 µM | RXF 631 > 100 µM | M19-MEL > 100 µM | DMS-114 > 100 µM | SNB-78 > 100 µM

O=C(N/N=C/c1cccc(O)c1O)N/N=C/c1cccc(O)c1O
inactive: LXFL 529 16.7 µM | XF498 19.1 µM | KM-20L2 29.3 µM | M19-MEL 22.4 µM | DMS-273 22.9 µM | DMS-114 > 100 µM | SNB-78 34.8 µM

CN(C)CC/C(=N\Nc1ccccc1)c1ccccc1
inactive: XF498 3.89 µM | DLD-1 69.2 µM | M19-MEL 25.2 µM | DMS-114 15.6 µM | SNB-78 11.8 µM

Cc1ccccc1C(=O)Oc1ccc(O)cc1
inactive: DLD-1 > 100 µM | RXF 631 > 100 µM | KM-20L2 > 100 µM | M19-MEL > 100 µM | DMS-273 > 100 µM | SNB-78 > 100 µM

O=c1cc(-c2ccccc2)c2cc3c(=O)ccoc3cc2o1
inactive: XF498 > 100 µM | DLD-1 77.4 µM | KM-20L2 > 100 µM | M19-MEL > 100 µM | DMS-273 > 100 µM | DMS-114 83 µM
